The values below come from patent US8399681B2, “Substituted aminothiazolone indazoles as estrogen related receptor-alpha modulators” (Janssen Pharmaceutica NV, priority 2009, dated 2013).

In general, EC50 refers to the concentration giving half of the maximal effect.

The assay addresses T1, ERR1 (also known as ERR-α or ERR-1) (Homo sapiens, UniProt P11474).
T1 sequence (P11474 193-421 limits assumed): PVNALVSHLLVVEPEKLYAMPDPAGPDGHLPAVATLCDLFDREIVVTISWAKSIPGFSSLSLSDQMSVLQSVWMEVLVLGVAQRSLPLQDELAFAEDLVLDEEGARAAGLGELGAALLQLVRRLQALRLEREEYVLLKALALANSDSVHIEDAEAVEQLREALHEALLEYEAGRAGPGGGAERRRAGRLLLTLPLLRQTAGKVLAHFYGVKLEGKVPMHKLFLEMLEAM
The assay is described as follows: TR-FRET assay (disruption of co-activator peptide binding). Format: biochemical. Particulars: 6His-tagged ERR1 LBD, GST-hSRC2 co-activator polypeptide; average of 3 independent experiments. The method in brief:
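His6-ERR1 LBD (6 nM) with GST-SRC-2 peptide (6 nM), anti-GST Eu cryptate (30 nM) and anti-His XL665 (7.5 nM) in Tris pH 8/KCl/DTT/BSA buffer, equilibrated 4-18 h at 25 °C. Ex 340, em 615/665 nm; hyperbolic dose-response fit, mean of 3 experiments.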
Background: In TR-FRET formats the signal depends on donor and acceptor labels being close together.

Take `O=C1N=C(N2CCN[C@@H](CO)C2)S/C1=C\c1ccc2c(cnn2Cc2ccc(Cl)cc2C(F)(F)F)c1` [Example 132, 5-[1-(4-Chloro-2-trifluoromethyl-benzyl)-1H-indazol-5-ylmethylene]-2-(3-(R)-hydroxymethyl-piperazin-1-yl)-thiazol-4-one]: a half-maximal response (EC50) required 0.0107 µM. This lies in the double-digit nanomolar range. The figure for `O=C1N=C(N2CCCN(CCF)CC2)S/C1=C\c1ccc2c(cnn2Cc2ccc(Cl)cc2C(F)(F)F)c1` [Example 133, 5-[1-(4-Chloro-2-trifluoromethyl-benzyl)-1H-indazol-5-ylmethylene]-2-[4-(2-fluoro-ethyl)-[1,4]diazepan-1-yl]-thiazol-4-one] is 0.0041 µM; for `CS(=O)(=O)N1CCCN(C2=NC(=O)/C(=C/c3ccc4c(cnn4Cc4ccc(Cl)cc4C(F)(F)F)c3)S2)CC1` [Example 134, 5-[1-(4-Chloro-2-trifluoromethyl-benzyl)-1H-indazol-5-ylmethylene]-2-(4-methanesulfonyl-[1,4]diazepan-1-yl)-thiazol-4-one] it is 0.005 µM; for `O=C1N=C(N2CCCN(CC(F)(F)F)CC2)S/C1=C\c1ccc2c(cnn2Cc2ccc(Cl)cc2C(F)(F)F)c1` [Example 135, 5-[1-(4-Chloro-2-trifluoromethyl-benzyl)-1H-indazol-5-ylmethylene]-2-[4-(2,2,2-trifluoro-ethyl)-[1,4]diazepan-1-yl]-thiazol-4-one] it is 0.052 µM.

Turning to `O=C1N=C(N2CCCN(C(=O)OCC(F)(F)F)CC2)S/C1=C\c1ccc2c(cnn2Cc2ccc(Cl)cc2C(F)(F)F)c1` [Example 136, 4-{5-[1-(4-Chloro-2-trifluoromethyl-benzyl)-1H-indazol-5-ylmethylene]-4-oxo-4,5-dihydro-thiazol-2-yl}[1,4]diazepane-1-carboxylic acid 2,2,2-trifluoro-ethyl ester], a half-maximal response (EC50) required 0.034 µM. Against the preceding compound, the EC50 is about 1.5-fold lower. The figure for `O=C1N=C(N2CCC(C(=O)O)C2)S/C1=C\c1ccc2c(cnn2Cc2ccc(Cl)cc2C(F)(F)F)c1` (centres unmarked) [Example 137, 1-{5-[1-(4-Chloro-2-trifluoromethyl-benzyl)-1H-indazol-5-ylmethylene]-4-oxo-4,5-dihydro-thiazol-2-yl}-pyrrolidine-3-carboxylic acid] is 0.014 µM; for `NCC(=O)N1CCCN(C2=NC(=O)/C(=C/c3ccc4c(cnn4Cc4ccc(Cl)cc4C(F)(F)F)c3)S2)CC1` [Example 138, 2-[4-(2-Amino-acetyl)-[1,4]diazepan-1-yl]-5-[1-(4-chloro-2-trifluoromethyl-benzyl)-1H-indazol-5-ylmethylene]-thiazol-4-one] it is 0.019 µM; for `CC(C)(C)OC[C@@H]1CN(C2=NC(=O)/C(=C/c3ccc4c(cnn4Cc4ccc(C(F)(F)F)cc4C(F)(F)F)c3)S2)CCO1` [Example 143, 5-({1-[2,4-Bis(trifluoromethyl)benzyl]-1H-indazol-5-yl}methylidene)-2-[2(S)-(tert-butoxymethyl)morpholin-4-yl]-1,3-thiazol-4(5H)-one] it is 0.056 µM.

Take `O=C1N=C(N2CC3COC(=O)C3C2)S/C1=C\c1ccc2c(cnn2Cc2ccc(Cl)cc2C(F)(F)F)c1` (centres unmarked) [Example 144, 5-{5-[1-(4-Chloro-2-trifluoromethyl-benzyl)-1H-indazol-5-ylmethylene]-4-oxo-4,5-dihydro-thiazol-2-yl}-hexahydro-furo[3,4-c]pyrrol-1-one]: the EC50 came to 0.014 µM.

`O=C(O)CC1CCN(C2=NC(=O)/C(=C/c3ccc4c(cnn4Cc4ccc(Cl)cc4C(F)(F)F)c3)S2)C1` (centres unmarked) [Example 145, (1-{5-[1-(4-Chloro-2-trifluoromethyl-benzyl)-1H-indazol-5-ylmethylene]-4-oxo-4,5-dihydro-thiazol-2-yl}-pyrrolidin-3-yl)-acetic acid] displayed an EC50 of 0.021 µM. The value for `O=C1N=C(N2CCS(=O)(=O)CC2)S/C1=C\c1ccc2c(cnn2Cc2ccc(Cl)cc2C(F)(F)F)c1` [Example 146, 5-[1-(4-Chloro-2-trifluoromethyl-benzyl)-1H-indazol-5-ylmethylene]-2-(1,1-dioxidothiomorpholin-4-yl)-thiazol-4-one] was 0.014 µM; that for `Cc1nnc(C)n1C1CCN(C2=NC(=O)/C(=C/c3ccc4c(cnn4Cc4ccc(Cl)cc4C(F)(F)F)c3)S2)CC1` [Example 147, 5-[1-(4-Chloro-2-trifluoromethyl-benzyl)-1H-indazol-5-ylmethylene]-2-[4-(3,5-dimethyl-[1,2,4]triazol-4-yl)-piperidin-1-yl]-thiazol-4-one] was 0.011 µM. The value for `O=C1N=C(N2CCSCC2)S/C1=C\c1ccc2c(cnn2Cc2ccc(Cl)cc2C(F)(F)F)c1` [Example 148, 5-[1-(4-Chloro-2-trifluoromethyl-benzyl)-1H-indazol-5-ylmethylene]-2-thiomorpholin-4-yl-thiazol-4-one] was 0.033 µM; that for `O=C1N=C(N2CC(F)C2)S/C1=C\c1ccc2c(cnn2Cc2ccc(Cl)cc2C(F)(F)F)c1` [Example 149, 5-[1-(4-Chloro-2-trifluoromethyl-benzyl)-1H-indazol-5-ylmethylene]-2-(3-fluoro-azetidin-1-yl)-thiazol-4-one] was 0.055 µM; that for `O=C1N=C(N2CCC(n3cnnn3)CC2)S/C1=C\c1ccc2c(cnn2Cc2ccc(Cl)cc2C(F)(F)F)c1` [Example 150, 5-[1-(4-Chloro-2-trifluoromethyl-benzyl)-1H-indazol-5-ylmethylene]-2-(4-tetrazol-1-yl-piperidin-1-yl)-thiazol-4-one] was 0.048 µM. The figure for `O=C1N=C(N2CCNCC(O)C2)S/C1=C\c1ccc2c(cnn2Cc2ccc(C(F)(F)F)cc2C(F)(F)F)c1` (centres unmarked) [Example 151, 5-[1-(2,4-Bis-trifluoromethyl-benzyl)-1H-indazol-5-ylmethylene]-2-(6-hydroxy-[1,4]diazepan-1-yl)thiazol-4-one] is 0.0257 µM; for `COC(=O)CCNC(=O)C1CN(C2=NC(=O)/C(=C/c3ccc4c(cnn4Cc4ccc(Cl)cc4C(F)(F)F)c3)S2)C1` [Example 152, 3-[(1-{5-[1-(4-Chloro-2-trifluoromethyl-benzyl)-1H-indazol-5-ylmethylene]-4-oxo-4,5-dihydro-thiazol-2-yl}-azetidine-3-carbonyl)-amino]-propionic acid methyl ester] it is 0.024 µM. Consider `COC(=O)CCNC(=O)C1CN(C2=NC(=O)/C(=C/c3ccc4c(cnn4Cc4ccc(C(F)(F)F)cc4C(F)(F)F)c3)S2)C1` [Example 153, 3-[(1-{5-[1-(2,4-Bis-trifluoromethyl-benzyl)-1H-indazol-5-ylmethylene]-4-oxo-4,5-dihydro-thiazol-2-yl}-azetidine-3-carbonyl)-amino]-propionic acid methyl ester], for which the EC50 worked out at 0.044 µM.

In the case of `NC1(C(=O)O)CCN(C2=NC(=O)/C(=C/c3ccc4c(cnn4Cc4ccc(Cl)cc4C(F)(F)F)c3)S2)CC1` [Example 154, 4-Amino-1-{5-[1-(4-chloro-2-trifluoromethyl-benzyl)-1H-indazol-5-ylmethylene]-4-oxo-4,5-dihydro-thiazol-2-yl}-piperidine-4-carboxylic acid], the EC50 was 0.0262 µM. The value for `CC(=O)N(C)C1CCN(C2=NC(=O)/C(=C/c3ccc4c(cnn4Cc4ccc(Cl)cc4C(F)(F)F)c3)S2)CC1` [Example 155, N-(1-{5-[1-(4-Chloro-2-trifluoromethyl-benzyl)-1H-indazol-5-ylmethylene]-4-oxo-4,5-dihydro-thiazol-2-yl}-piperidin-4-yl)-N-methyl-acetamide] was 0.034 µM.
